From ChEMBL document CHEMBL2010719, “Tyrosine modified analogues of the α4β7 integrin inhibitor biotin-R₈ERY prepared via Click Chemistry: synthesis and biological evaluation” (Bioorg Med Chem, 2012)
Residues, ends and D or L forms follow the SMILES beside them. *: point of attachment. X6 = CC(=O)OC[C@@H]1O[C@H](n2cc(C*)nn2)[C@@H](OC(C)=O)[C@H](OC(C)=O)[C@@H]1OC(C)=O; X3 = CC(=O)N[C@H]1[C@H](OC(C)=O)[C@H](OC(C)=O)[C@H](COC(C)=O)O[C@@H]1n1cc(C*)nn1; X1 = CC(=O)OC[C@@H]1OC(OC(C)=O)[C@@H](n2cc(C*)nn2)[C@H](OC(C)=O)[C@@H]1OC(C)=O; X9 = CC(=O)N[C@@H]1[C@H](OCCCn2cc(C*)nn2)O[C@@H](CO)[C@@H](O)[C@H]1O; X4 = CC(=O)N[C@H]1[C@H](O)[C@H](O)[C@H](CO)O[C@@H]1n1cc(C*)nn1; X5 = O=C(N[C@@H](Cn1cc(C*)nn1)C(=O)O)OCC1c2ccccc2-c2ccccc21; X2 = OC[C@@H]1O[C@H](n2cc(C*)nn2)[C@@H](O)[C@H](O)[C@@H]1O; Biotin = O=C1N[C@H]2[C@H](CS[C@H]2CCCCC(=O)*)N1; X8 = O=P(O)(O)CCn1cc(C*)nn1; X7 = O=C(O)Cn1cc(C*)nn1; Propargyl = C#CC*

Legend:
Assay type in all cases: cell-based
[1] = target: T1, Integrin alpha-4/beta-7 (Mus musculus) (UniProt Q00651+P26011); assay: Inhibition of integrin alpha4 beta7 receptor in mouse TK1 cells assessed as inhibition of Mn2+-activated cell adhesion to mouse MAdCAM-1-Fc at 50 uM after 1 hr by methylene blue staining analysis relative to biotin-r9YDRREY
[2] = target: T1, Integrin alpha-4/beta-7 (Mus musculus); assay: Inhibition of integrin alpha4 beta7 receptor in mouse TK1 cells assessed as inhibition of Mn2+-activated cell adhesion to mouse MAdCAM-1-Fc at 100 uM after 1 hr using methylene blue staining relative to biotin-r9YDRREY
[3] = target: T2, Integrin alpha-4/beta-7 (Mus musculus, UniProt P26011+Q00651); assay: Inhibition of integrin alpha4 beta7 receptor in mouse TK1 cells assessed as inhibition of Mn2+-activated cell adhesion to mouse MAdCAM-1-Fc after 1 hr using methylene blue staining
T2 sequence (Q00651 whole entry): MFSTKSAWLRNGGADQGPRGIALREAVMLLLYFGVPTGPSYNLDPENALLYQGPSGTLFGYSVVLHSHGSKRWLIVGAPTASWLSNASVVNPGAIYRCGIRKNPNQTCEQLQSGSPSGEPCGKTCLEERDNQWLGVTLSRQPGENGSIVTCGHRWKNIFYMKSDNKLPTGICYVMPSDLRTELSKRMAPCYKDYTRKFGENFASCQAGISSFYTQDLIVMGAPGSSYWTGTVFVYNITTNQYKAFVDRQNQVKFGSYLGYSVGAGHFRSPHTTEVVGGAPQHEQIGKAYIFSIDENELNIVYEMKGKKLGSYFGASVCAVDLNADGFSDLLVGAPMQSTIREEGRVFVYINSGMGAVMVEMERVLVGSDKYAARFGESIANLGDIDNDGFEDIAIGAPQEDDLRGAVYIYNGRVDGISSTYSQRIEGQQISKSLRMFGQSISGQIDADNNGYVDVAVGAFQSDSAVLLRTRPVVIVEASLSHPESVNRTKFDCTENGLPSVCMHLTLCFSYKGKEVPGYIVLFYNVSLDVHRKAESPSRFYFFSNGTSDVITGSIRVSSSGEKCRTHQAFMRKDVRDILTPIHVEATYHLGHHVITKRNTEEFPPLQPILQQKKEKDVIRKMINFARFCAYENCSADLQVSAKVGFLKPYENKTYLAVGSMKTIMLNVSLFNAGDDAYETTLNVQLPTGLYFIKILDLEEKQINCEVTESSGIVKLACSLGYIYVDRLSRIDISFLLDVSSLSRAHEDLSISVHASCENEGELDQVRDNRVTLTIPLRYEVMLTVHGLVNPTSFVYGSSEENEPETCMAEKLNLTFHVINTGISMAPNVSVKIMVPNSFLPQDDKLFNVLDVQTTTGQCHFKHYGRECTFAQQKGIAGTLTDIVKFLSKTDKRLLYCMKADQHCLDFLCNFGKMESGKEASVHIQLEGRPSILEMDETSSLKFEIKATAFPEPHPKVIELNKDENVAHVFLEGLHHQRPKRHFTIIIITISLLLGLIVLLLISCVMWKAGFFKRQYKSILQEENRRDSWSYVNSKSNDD
T2 sequence (P26011 whole entry): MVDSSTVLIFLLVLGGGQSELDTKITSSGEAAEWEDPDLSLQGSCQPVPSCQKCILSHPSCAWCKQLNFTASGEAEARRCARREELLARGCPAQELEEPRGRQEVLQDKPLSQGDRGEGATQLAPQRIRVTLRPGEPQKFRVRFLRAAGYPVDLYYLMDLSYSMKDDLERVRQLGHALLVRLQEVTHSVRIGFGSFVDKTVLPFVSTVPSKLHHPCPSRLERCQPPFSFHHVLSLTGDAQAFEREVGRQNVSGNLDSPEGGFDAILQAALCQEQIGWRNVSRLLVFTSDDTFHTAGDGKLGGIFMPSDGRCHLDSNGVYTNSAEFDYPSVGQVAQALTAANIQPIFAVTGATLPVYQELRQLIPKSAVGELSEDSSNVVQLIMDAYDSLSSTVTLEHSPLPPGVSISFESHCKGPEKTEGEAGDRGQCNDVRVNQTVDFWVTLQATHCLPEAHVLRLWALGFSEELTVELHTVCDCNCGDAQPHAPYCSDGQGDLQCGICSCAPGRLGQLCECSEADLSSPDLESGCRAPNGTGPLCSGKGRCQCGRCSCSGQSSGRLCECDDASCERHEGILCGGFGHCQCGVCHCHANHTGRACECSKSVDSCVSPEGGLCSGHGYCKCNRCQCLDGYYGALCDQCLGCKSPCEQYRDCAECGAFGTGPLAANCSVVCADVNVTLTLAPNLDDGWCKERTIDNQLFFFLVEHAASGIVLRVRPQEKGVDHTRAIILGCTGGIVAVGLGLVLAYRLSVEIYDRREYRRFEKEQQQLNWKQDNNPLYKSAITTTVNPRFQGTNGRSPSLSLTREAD

Compound | inhibition [1] [%] | inhibition [2] [%] | IC50 [3] [µM]
C#CCOc1ccc(C[C@H](NC(=O)[C@H](CCCNC(=N)N)NC(=O)[C@H](CCC(=O)O)NC(=O)[C@H](CCCNC(=N)N)NC(=O)[C@H](CCCNC(=N)N)NC(=O)[C@H](CCCNC(=N)N)NC(=O)[C@H](CCCNC(=N)N)NC(=O)[C@H](CCCNC(=N)N)NC(=O)[C@H](CCCNC(=N)N)NC(=O)[C@H](CCCNC(=N)N)NC(=O)[C@H](CCCNC(=N)N)NC(=O)CCCC[C@@H]2SC[C@@H]3NC(=O)N[C@@H]32)C(=O)O)cc1 (Biotin-RRRRRRRRERY(Propargyl)-OH) | 39.8 | 39.8 | –
CC(=O)OC[C@@H]1OC(OC(C)=O)[C@@H](n2cc(COc3ccc(C[C@H](NC(=O)[C@H](CCCNC(=N)N)NC(=O)[C@H](CCC(=O)O)NC(=O)[C@H](CCCNC(=N)N)NC(=O)[C@H](CCCNC(=N)N)NC(=O)[C@H](CCCNC(=N)N)NC(=O)[C@H](CCCNC(=N)N)NC(=O)[C@H](CCCNC(=N)N)NC(=O)[C@H](CCCNC(=N)N)NC(=O)[C@H](CCCNC(=N)N)NC(=O)[C@H](CCCNC(=N)N)NC(=O)CCCC[C@@H]4SC[C@@H]5NC(=O)N[C@@H]54)C(=O)O)cc3)nn2)[C@H](OC(C)=O)[C@@H]1OC(C)=O (some centres not stated) (Biotin-RRRRRRRRERY(X1)-OH) | 104 | 105 | 50
N=C(N)NCCC[C@H](NC(=O)CCCC[C@@H]1SC[C@@H]2NC(=O)N[C@@H]21)C(=O)N[C@@H](CCCNC(=N)N)C(=O)N[C@@H](CCCNC(=N)N)C(=O)N[C@@H](CCCNC(=N)N)C(=O)N[C@@H](CCCNC(=N)N)C(=O)N[C@@H](CCCNC(=N)N)C(=O)N[C@@H](CCCNC(=N)N)C(=O)N[C@@H](CCCNC(=N)N)C(=O)N[C@@H](CCC(=O)O)C(=O)N[C@@H](CCCNC(=N)N)C(=O)N[C@@H](Cc1ccc(OCc2cn([C@H]3O[C@@H](CO)[C@@H](O)[C@@H](O)[C@@H]3O)nn2)cc1)C(=O)O (Biotin-RRRRRRRRERY(X2)-OH) | 60.2 | 62.7 | –
CC(=O)N[C@H]1[C@H](OC(C)=O)[C@H](OC(C)=O)[C@H](COC(C)=O)O[C@@H]1n1cc(COc2ccc(C[C@H](NC(=O)[C@H](CCCNC(=N)N)NC(=O)[C@H](CCC(=O)O)NC(=O)[C@H](CCCNC(=N)N)NC(=O)[C@H](CCCNC(=N)N)NC(=O)[C@H](CCCNC(=N)N)NC(=O)[C@H](CCCNC(=N)N)NC(=O)[C@H](CCCNC(=N)N)NC(=O)[C@H](CCCNC(=N)N)NC(=O)[C@H](CCCNC(=N)N)NC(=O)[C@H](CCCNC(=N)N)NC(=O)CCCC[C@@H]3SC[C@@H]4NC(=O)N[C@@H]43)C(=O)O)cc2)nn1 (Biotin-RRRRRRRRERY(X3)-OH) | 40 | 46.5 | –
CC(=O)N[C@H]1[C@H](O)[C@H](O)[C@H](CO)O[C@@H]1n1cc(COc2ccc(C[C@H](NC(=O)[C@H](CCCNC(=N)N)NC(=O)[C@H](CCC(=O)O)NC(=O)[C@H](CCCNC(=N)N)NC(=O)[C@H](CCCNC(=N)N)NC(=O)[C@H](CCCNC(=N)N)NC(=O)[C@H](CCCNC(=N)N)NC(=O)[C@H](CCCNC(=N)N)NC(=O)[C@H](CCCNC(=N)N)NC(=O)[C@H](CCCNC(=N)N)NC(=O)[C@H](CCCNC(=N)N)NC(=O)CCCC[C@@H]3SC[C@@H]4NC(=O)N[C@@H]43)C(=O)O)cc2)nn1 (Biotin-RRRRRRRRERY(X4)-OH) | 28 | 39.6 | –
N=C(N)NCCC[C@H](NC(=O)CCCC[C@@H]1SC[C@@H]2NC(=O)N[C@@H]21)C(=O)N[C@@H](CCCNC(=N)N)C(=O)N[C@@H](CCCNC(=N)N)C(=O)N[C@@H](CCCNC(=N)N)C(=O)N[C@@H](CCCNC(=N)N)C(=O)N[C@@H](CCCNC(=N)N)C(=O)N[C@@H](CCCNC(=N)N)C(=O)N[C@@H](CCCNC(=N)N)C(=O)N[C@@H](CCC(=O)O)C(=O)N[C@@H](CCCNC(=N)N)C(=O)N[C@@H](Cc1ccc(OCc2cn(C[C@H](NC(=O)OCC3c4ccccc4-c4ccccc43)C(=O)O)nn2)cc1)C(=O)O (Biotin-RRRRRRRRERY(X5)-OH) | 114 | 111 | < 10
CC(=O)OC[C@@H]1O[C@H](n2cc(COc3ccc(C[C@H](NC(=O)[C@H](CCCNC(=N)N)NC(=O)[C@H](CCC(=O)O)NC(=O)[C@H](CCCNC(=N)N)NC(=O)[C@H](CCCNC(=N)N)NC(=O)[C@H](CCCNC(=N)N)NC(=O)[C@H](CCCNC(=N)N)NC(=O)[C@H](CCCNC(=N)N)NC(=O)[C@H](CCCNC(=N)N)NC(=O)[C@H](CCCNC(=N)N)NC(=O)[C@H](CCCNC(=N)N)NC(=O)CCCC[C@@H]4SC[C@@H]5NC(=O)N[C@@H]54)C(=O)O)cc3)nn2)[C@@H](OC(C)=O)[C@H](OC(C)=O)[C@@H]1OC(C)=O (Biotin-RRRRRRRRERY(X6)-OH) | 47.4 | 52.5 | –
N=C(N)NCCC[C@H](NC(=O)CCCC[C@@H]1SC[C@@H]2NC(=O)N[C@@H]21)C(=O)N[C@@H](CCCNC(=N)N)C(=O)N[C@@H](CCCNC(=N)N)C(=O)N[C@@H](CCCNC(=N)N)C(=O)N[C@@H](CCCNC(=N)N)C(=O)N[C@@H](CCCNC(=N)N)C(=O)N[C@@H](CCCNC(=N)N)C(=O)N[C@@H](CCCNC(=N)N)C(=O)N[C@@H](CCC(=O)O)C(=O)N[C@@H](CCCNC(=N)N)C(=O)N[C@@H](Cc1ccc(OCc2cn(CC(=O)O)nn2)cc1)C(=O)O (Biotin-RRRRRRRRERY(X7)-OH) | 56.1 | 34.9 | –
N=C(N)NCCC[C@H](NC(=O)CCCC[C@@H]1SC[C@@H]2NC(=O)N[C@@H]21)C(=O)N[C@@H](CCCNC(=N)N)C(=O)N[C@@H](CCCNC(=N)N)C(=O)N[C@@H](CCCNC(=N)N)C(=O)N[C@@H](CCCNC(=N)N)C(=O)N[C@@H](CCCNC(=N)N)C(=O)N[C@@H](CCCNC(=N)N)C(=O)N[C@@H](CCCNC(=N)N)C(=O)N[C@@H](CCC(=O)O)C(=O)N[C@@H](CCCNC(=N)N)C(=O)N[C@@H](Cc1ccc(OCc2cn(CCP(=O)(O)O)nn2)cc1)C(=O)O (Biotin-RRRRRRRRERY(X8)-OH) | 60.3 | 65.4 | –
CC(=O)N[C@@H]1[C@H](OCCCn2cc(COc3ccc(C[C@H](NC(=O)[C@H](CCCNC(=N)N)NC(=O)[C@H](CCC(=O)O)NC(=O)[C@H](CCCNC(=N)N)NC(=O)[C@H](CCCNC(=N)N)NC(=O)[C@H](CCCNC(=N)N)NC(=O)[C@H](CCCNC(=N)N)NC(=O)[C@H](CCCNC(=N)N)NC(=O)[C@H](CCCNC(=N)N)NC(=O)[C@H](CCCNC(=N)N)NC(=O)[C@H](CCCNC(=N)N)NC(=O)CCCC[C@@H]4SC[C@@H]5NC(=O)N[C@@H]54)C(=O)O)cc3)nn2)O[C@@H](CO)[C@@H](O)[C@H]1O (Biotin-RRRRRRRRERY(X9)-OH) | 41.5 | 42.4 | –
